Test results from ChEMBL document CHEMBL3792297, “Studies on phenothiazines: New microtubule-interacting compounds with phenothiazine A-ring as potent antineoplastic agents” (Bioorg Med Chem, 2016).

Columns and labels:
Format in all cases: functional
NCI-H23 = assay: Growth inhibition of human NCI-H23 cells after 48 hrs by SRB assay; conditions: NCI-H23, 48 h
M14 = assay: Growth inhibition of human M14 cells at 10 uM after 48 hrs by SRB assay relative to control; conditions: M14, 48 h, read-out: GI
[1] = Growth inhibition of human COLO205 cells after 48 hrs by SRB assay; conditions: COLO 205, 48 h
[2] = Growth inhibition of human LOXIMVI cells at 10 uM after 48 hrs by SRB assay relative to control; conditions: LOX IMVI, read-out: GI
[3] = Growth inhibition of human UO31 cells after 48 hrs by SRB assay; conditions: UO-31, 48 h
[4] = Growth inhibition of human OVCAR4 cells at 10 uM after 48 hrs by SRB assay relative to control; conditions: OVCAR-4, 48 h, read-out: GI
[5] = Growth inhibition of human SNB19 cells at 10 uM after 48 hrs by SRB assay relative to control; conditions: SNB-19, 48 h, read-out: GI
[6] = Growth inhibition of human TK10 cells at 10 uM after 48 hrs by SRB assay relative to control; conditions: TK-10, 48 h, read-out: GI
[7] = Growth inhibition of human PC3 cells at 10 uM after 48 hrs by SRB assay relative to control; conditions: PC-3, 48 h, read-out: GI
[8] = Growth inhibition of human OVCAR5 cells at 10 uM after 48 hrs by SRB assay relative to control; conditions: OVCAR-5, 48 h, read-out: GI
[9] = Growth inhibition of human PC3 cells after 48 hrs by SRB assay; conditions: PC-3, 48 h
[10] = Growth inhibition of human SKOV3 cells at 10 uM after 48 hrs by SRB assay relative to control; conditions: SK-OV-3, 48 h, read-out: GI
SK-MEL-28 = assay: Growth inhibition of human SK-MEL-28 cells after 48 hrs by SRB assay; conditions: SK-MEL-28, 48 h
[11] = Growth inhibition of human HOP92 cells after 48 hrs by SRB assay; conditions: HOP-92, 48 h
SR = assay: Growth inhibition of human SR cells after 48 hrs by SRB assay
[12] = Growth inhibition of human Caki1 cells after 48 hrs by SRB assay; conditions: CAKI-1, 48 h
MCF7 [13] = assay: Growth inhibition of human MCF7 cells after 48 hrs by SRB assay; conditions: MCF7, 48 h
[14] = Growth inhibition of human HCT116 cells after 48 hrs by SRB assay; conditions: HCT-116, 48 h
KM12 = assay: Growth inhibition of human KM12 cells after 48 hrs by SRB assay; conditions: KM12, 48 h
CCRF-CEM [15] = assay: Growth inhibition of human CCRF-CEM cells at 10 uM after 48 hrs by SRB assay relative to control; conditions: read-out: GI
NCI-H460 = assay: Growth inhibition of human NCI-H460 cells at 10 uM after 48 hrs by SRB assay relative to control; conditions: NCI-H460, 48 h, read-out: GI
[16] = Growth inhibition of human NCI-ADR-RES cells after 48 hrs by SRB assay
MCF7 [17] = assay: Growth inhibition of human MCF7 cells at 10 uM after 48 hrs by SRB assay relative to control; conditions: MCF7, 48 h, read-out: GI
[18] = Growth inhibition of human HOP62 cells at 10 uM after 48 hrs by SRB assay relative to control; conditions: HOP-62, 48 h, read-out: GI
[19] = Growth inhibition of human SF268 cells after 48 hrs by SRB assay; conditions: SF-268, 48 h
A549 = assay: Growth inhibition of human A549 cells after 48 hrs by SRB assay; conditions: A549, 48 h
[20] = Growth inhibition of human OVCAR8 cells at 10 uM after 48 hrs by SRB assay relative to control; conditions: OVCAR-8, 48 h, read-out: GI
[21] = Growth inhibition of human MOLT4 cells at 10 uM after 48 hrs by SRB assay relative to control; conditions: MOLT-4, 48 h, read-out: GI
SN12C = assay: Growth inhibition of human SN12C cells at 10 uM after 48 hrs by SRB assay relative to control; conditions: read-out: GI
[22] = Growth inhibition of human RXF393 cells at 10 uM after 48 hrs by SRB assay relative to control; conditions: RXF 393, 48 h, read-out: GI
[23] = Growth inhibition of human HCT15 cells after 48 hrs by SRB assay; conditions: HCT-15, 48 h
[24] = Growth inhibition of human OVCAR5 cells after 48 hrs by SRB assay; conditions: OVCAR-5, 48 h
[25] = Growth inhibition of human COLO205 cells at 10 uM after 48 hrs by SRB assay relative to control; conditions: COLO 205, 48 h, read-out: GI
[26] = Growth inhibition of human UACC62 cells after 48 hrs by SRB assay; conditions: UACC-62, 48 h
[27] = Growth inhibition of human DU145 cells after 48 hrs by SRB assay; conditions: DU-145, 48 h
[28] = Growth inhibition of human UACC62 cells at 10 uM after 48 hrs by SRB assay relative to control; conditions: UACC-62, 48 h, read-out: GI
K562 = assay: Growth inhibition of human K562 cells after 48 hrs by SRB assay; conditions: K562, 48 h
U-251 = assay: Growth inhibition of human U251 cells at 10 uM after 48 hrs by SRB assay relative to control; conditions: U-251, 48 h, read-out: GI
EKVX = assay: Growth inhibition of human EKVX cells at 10 uM after 48 hrs by SRB assay relative to control; conditions: read-out: GI
[29] = Growth inhibition of human Caki1 cells at 10 uM after 48 hrs by SRB assay relative to control; conditions: CAKI-1, 48 h, read-out: GI
Malme-3M = assay: Growth inhibition of human MALME-3M cells at 10 uM after 48 hrs by SRB assay relative to control; conditions: read-out: GI
[30] = Growth inhibition of human SNB75 cells after 48 hrs by SRB assay; conditions: SNB-75, 48 h
[31] = Growth inhibition of human SF539 cells after 48 hrs by SRB assay; conditions: SF-539, 48 h
[32] = Growth inhibition of human RXF393 cells after 48 hrs by SRB assay; conditions: RXF 393, 48 h
MDA-MB-435 = assay: Growth inhibition of human MDA-MB-435 cells after 48 hrs by SRB assay; conditions: MDA-MB-435, 48 h
CCRF-CEM [33] = assay: Growth inhibition of human CCRF-CEM cells after 48 hrs by SRB assay
[34] = Growth inhibition of human LOXIMVI cells after 48 hrs by SRB assay; conditions: LOX IMVI

O=C(c1ccc2c(c1)Sc1ccccc1N2)c1c[nH]c2ccccc12
GI50 (NCI-H23): 0.389 µM
inhibition of growth at 10 µM (M14): 86%
GI50 [1]: 0.285 µM
inhibition of growth at 10 µM [2]: 85%
GI50 [3]: 0.51 µM
inhibition of growth at 10 µM [4]: 39%
inhibition of growth at 10 µM [5]: 41%
inhibition of growth at 10 µM [6]: 63%
inhibition of growth at 10 µM [7]: 74%
inhibition of growth at 10 µM [8]: 60%
GI50 [9]: 0.544 µM
inhibition of growth at 10 µM [10]: 85%
GI50 (SK-MEL-28): 0.63 µM
GI50 [11]: 0.585 µM
GI50 (SR): 0.173 µM
GI50 [12]: 0.359 µM
GI50 (MCF7 [13]): 0.312 µM
GI50 [14]: 0.378 µM
GI50 (KM12): 0.311 µM
inhibition of growth at 10 µM (CCRF-CEM [15]): 81%
inhibition of growth at 10 µM (NCI-H460): 90%
GI50 [16]: 0.317 µM
inhibition of growth at 10 µM (MCF7 [17]): 80%
inhibition of growth at 10 µM [18]: 61%
GI50 [19]: 0.798 µM
GI50 (A549): 0.592 µM
inhibition of growth at 10 µM [20]: 77%
inhibition of growth at 10 µM [21]: 73%
inhibition of growth at 10 µM (SN12C): 57%
inhibition of growth at 10 µM [22]: 91%
GI50 [23]: 0.408 µM
GI50 [24]: 0.565 µM
inhibition of growth at 10 µM [25]: 100%
GI50 [26]: 0.356 µM
GI50 [27]: 0.679 µM
inhibition of growth at 10 µM [28]: 46%
GI50 (K562): 0.31 µM
inhibition of growth at 10 µM (U-251): 83%
inhibition of growth at 10 µM (EKVX): 47%
inhibition of growth at 10 µM [29]: 66%
inhibition of growth at 10 µM (Malme-3M): 49%
GI50 [30]: 0.249 µM
GI50 [31]: 0.258 µM
GI50 [32]: 0.51 µM
GI50 (MDA-MB-435): 0.098 µM
GI50 (CCRF-CEM [33]): 0.328 µM

COc1ccc(C(=O)N2c3ccccc3Sc3ccccc32)c(C(F)(F)F)c1
GI50 (NCI-H23): 0.578 µM
inhibition of growth at 10 µM (M14): 98%
GI50 [1]: 0.319 µM
inhibition of growth at 10 µM [2]: 83%
GI50 [3]: 2.62 µM
inhibition of growth at 10 µM [4]: 53%
inhibition of growth at 10 µM [5]: 69%
inhibition of growth at 10 µM [6]: 43%
inhibition of growth at 10 µM [7]: 85%
inhibition of growth at 10 µM [8]: 55%
GI50 [9]: 0.426 µM
GI50 [34]: 0.516 µM
inhibition of growth at 10 µM [10]: 66%
GI50 (SK-MEL-28): 9.17 µM
GI50 [11]: 0.152 µM
GI50 (SR): 0.312 µM
GI50 [12]: 0.692 µM
GI50 (MCF7 [13]): 0.411 µM
GI50 [14]: 0.505 µM
GI50 (KM12): 0.413 µM
inhibition of growth at 10 µM (CCRF-CEM [15]): 78%
inhibition of growth at 10 µM (NCI-H460): 90%
GI50 [16]: 0.37 µM
inhibition of growth at 10 µM (MCF7 [17]): 83%
inhibition of growth at 10 µM [18]: 57%
GI50 [19]: 3.04 µM
GI50 (A549): 0.515 µM
inhibition of growth at 10 µM [20]: 85%
inhibition of growth at 10 µM [21]: 85%
inhibition of growth at 10 µM (SN12C): 60%
inhibition of growth at 10 µM [22]: 85%
GI50 [23]: 0.405 µM
GI50 [24]: 1.61 µM
inhibition of growth at 10 µM [25]: 100%
GI50 [26]: 0.438 µM
GI50 [27]: 0.433 µM
inhibition of growth at 10 µM [28]: 68%
GI50 (K562): 0.349 µM
inhibition of growth at 10 µM (U-251): 81%
inhibition of growth at 10 µM (EKVX): 54%
inhibition of growth at 10 µM [29]: 68%
inhibition of growth at 10 µM (Malme-3M): 40%
GI50 [30]: 0.264 µM
GI50 [31]: 0.27 µM
GI50 [32]: 0.362 µM
GI50 (MDA-MB-435): 0.176 µM
GI50 (CCRF-CEM [33]): 0.088 µM
